# Measurements reported in patent publication US20220016092A1, “METHODS FOR TREATING SYMPTOMS AND DISORDERS ASSOCIATED WITH LYSOSOMAL STORAGE DISEASES” (GENZYME CORPORATION, priority 2019, published 2022).
# Where “and” joins values, the source holds several entries; their conditions need not be identical. Identical values can stand only once.
# Assays:
# [1] = test system: adult male Fabry patients; experiment: Clinical study in Fabry disease patients: SF-36 bodily pain and abdominal pain; type: in vivo, human; details: 15 mg/day oral
# Experimental: A three-year open-label investigation of Compound 2 in young classic Fabry disease patients was conducted in order to evaluate the long-term safety, pharmacodynamics and exploratory efficacy of Compound 2 in adult male Fabry patients. Eleven subjects enrolled in the study, and seven subjects completed all aspects of the study. All subjects were males diagnosed with classic Fabry disease confirmed by genotype and residual alpha-galactosidase activity below detection levels (9 of the 11 had nonsense mutation in the GLA gene). All subjects had lyso-GL3 levels in plasma of at least 65 ng/mL and had no prior Fabry disease-specific treatment. The median age of subject was 24 years (range 19-37).
# Each sample was scored independently by 3 pathologists for the presence of GL-3 inclusions on a four-point scale, and rated as 0 (no/trace), 1 (mild), 2 (moderate), or 3 (severe) according to Eng et al., N. Engl. J. Med. 345:9-16 (2001). A single score per patient per time point was derived by taking the score rated by the majority of the three pathologists. If a majority score could not be derived, then the median score was used (resulting in some fractional scores). Plasma samples were also analyzed for GL-3, lyso-GL-3, GL-1 and GM3 at baseline and weeks 12, 26, 52 and 156. […]
# Patients were assessed using the Short Form-36 (SF-36) questionnaire on numerous visits from baseline to week 156. This is a 36-item questionnaire used to measure 8 various aspects of health (vitality, physical functioning, bodily pain, general health perceptions, physical role functioning, emotional role functioning, social role functioning and mental health). The score for each of the eight aspects ranges from 0 (maximum disability) to 100 (no disability), and thus, higher scores indicate good health condition. In addition, gastrointestinal symptoms, including abdominal pain, abdominal distention, and bowl movements, were assessed using a modified version of the inflammatory bowel severity scoring system. Particular questions asked as part of these assessments included: (1) whether the patient suffered abdominal pain within the last ten days, (2) what was the severity of abdominal pain suffered in the last ten days using a 0 (no pain) to 100 (very severe pain) scale, and (3) on how many days within the last ten days did the patient have abdominal pain.
# [2] = test system: GL-3 inclusions in superficial endothelial cell capillaries; experiment: Clinical study in Fabry disease patients: GL-3 inclusion volume fraction by electron microscopy; type: in vivo, human; details: 15 mg/day oral
# Source text: In addition to scoring GL-3 skin inclusions by light microscopy, the fraction of the volume of endothelial cell cytoplasm occupied by GL-3 inclusions was estimated using point-counting of electron microscopic images by a masked reader. Images from at least 50 superficial endothelial cell capillaries were obtained using electron microscopy at 7500× magnification. Two-sided t tests were used to evaluate differences between baseline and post-treatment values at each time point.
# [3] = Study 1 Part 2: pharmacokinetics with and without a high-fat meal; type: in vivo, human; details: healthy men, single oral 5 mg dose
# Source text: Study 1 was a 2-part single-center trial in healthy adult male volunteers.
# Part 1 of the study enrolled and randomized 55 healthy men (placebo, n=14; 2-, 5-, 15, 25-, 50, and 100-mg doses, n=6 each; 150-mg dose, n=5). Eight healthy men participated in Part 2.
# After a 7-day washout period, participants were crossed over to the other condition.
# [4] = test system: healthy, human volunteers; experiment: Phase 1 studies in healthy volunteers: safety; type: in vivo
# Experimental: Compound 2 is also known as venglustat.
# In all studies, safety profile was assessed by monitoring treatment-emergent adverse events (TEAEs) through 10 days after last dose of study medication, including serious adverse events [SAEs]), ECG monitoring, laboratory values, and physical examinations.
# [5] = test system: adult patients with Gaucher disease Type 3; experiment: Clinical study in GD-3 patients: Scale for Assessment and Rating of Ataxia (SARA); type: in vivo, human; details: 15 mg/day + imiglucerase
# Experimental: The degree of ataxia at baseline and throughout the study was evaluated by the Scale for Assessment and Rating of Ataxia (SARA; Schmitz-Hübsch et al. [2006]), which assesses eight distinct attributes of cerebellar ataxia on a scale of 0-40. The eight attributes are gait, stance, sitting, speech disturbance, finger chase, nose-finger test, fast alternate hand movement, and heel-shin slide. SARA ataxia scoring results for all six patients is presented in the chart below: […]
# [6] = test system: adult patients with Gaucher disease Type 3; experiment: Clinical study in GD-3 patients: markers for systemic disease (platelets, spleen volume, hemoglobin); type: in vivo, human; details: 15 mg/day + imiglucerase
# Experimental: During the study patients were evaluated for safety and tolerability, CSF and plasma biomarkers (glucosylceramide, GL-1; glucosylsphingosine, lyso-GL1), pharmacokinetics, markers for systemic disease (spleen and liver volume measured by magnetic resonance imaging (MRI), platelet count, hemoglobin levels), indicia of interstitial lung disease (high resolution pulmonary computed tomography (CT)), and horizontal saccadic eye movement.
# Individual patient data for platelet counts are shown in the table below (shown as 10^9 platelets/L): […]
structure (smiles),measurement,setting,value
"CC(C)(NC(=O)O[C@@H]1CN2CCC1CC2)c1csc(-c2ccc(F)cc2)n1 [Compound 2, (S)-quinuclidin-3-yl 2-(2-(4-fluorophenyl)thiazol-4-yl)propan-2-ylcarbamate]",Number of Patients Reporting Yes to Abdominal Pain in 10-Days Preceding Visit,[1]; 4 weeks,4/11
same,"Abdominal Pain Severity Score in 10-Days Preceding Visit (mean value, 0-100 scale)",[1]; 4 weeks (n = 4),29.75
same,Number of Days within Preceding 10 Days with Abdominal Pain (mean value),[1]; 4 weeks (n = 4),2.50
same,Number of Patients Reporting Yes to Abdominal Pain in 10-Days Preceding Visit,[1]; 12 weeks,2/10
same,"Abdominal Pain Severity Score in 10-Days Preceding Visit (mean value, 0-100 scale)",[1]; 12 weeks (n = 2),40.00
same,Number of Days within Preceding 10 Days with Abdominal Pain (mean value),[1]; 12 weeks (n = 2),3.50
same,Number of Patients Reporting Yes to Abdominal Pain in 10-Days Preceding Visit,[1]; 26 weeks,3/9
same,"Abdominal Pain Severity Score in 10-Days Preceding Visit (mean value, 0-100 scale)",[1]; 26 weeks (n = 3),31.33
same,Number of Days within Preceding 10 Days with Abdominal Pain (mean value),[1]; 26 weeks (n = 3),3.00
same,Number of Patients Reporting Yes to Abdominal Pain in 10-Days Preceding Visit,[1]; 52 weeks,2/7
same,"Abdominal Pain Severity Score in 10-Days Preceding Visit (mean value, 0-100 scale)",[1]; 52 weeks (n = 1),21.00
same,Number of Days within Preceding 10 Days with Abdominal Pain (mean value),[1]; 52 weeks (n = 3),0.70
same,Number of Patients Reporting Yes to Abdominal Pain in 10-Days Preceding Visit,[1]; 104 weeks,2/7
same,"Abdominal Pain Severity Score in 10-Days Preceding Visit (mean value, 0-100 scale)",[1]; 104 weeks (n = 1),21.00
same,Number of Patients Reporting Yes to Abdominal Pain in 10-Days Preceding Visit,[1]; 156 weeks,2/7
same,"Abdominal Pain Severity Score in 10-Days Preceding Visit (mean value, 0-100 scale)",[1]; 156 weeks (n = 2),15.00
same,Number of Days within Preceding 10 Days with Abdominal Pain (mean value),[1]; 156 weeks (n = 2),0.20
same,"Patients with decreased severity of abdominal pain, among those with gastrointestinal pain at baseline",[1]; week 26,four out of five
same,Patients with improved overall bodily pain scores (SF-36),[1]; week 26,Seven of nine
same,Patients with reduced number of days with gastrointestinal pain,[1]; week 26,five of five
same,"Patients with decreased severity of abdominal pain, among those with gastrointestinal pain at baseline",[1]; week 156,four out of four
same,Patients with improved overall bodily pain scores (SF-36),[1]; week 156,three of six
same,Patients with reduced number of days with gastrointestinal pain,[1]; week 156,three of four
same,Volume fraction (volume of inclusions/total cytoplasmic volume),[2]; 3 months (N = 9),0.29 ± 0.06
same,"Volume fraction, Change from baseline","[2]; 3 months (N = 9), P 0.74",−1.9%
same,Volume fraction (volume of inclusions/total cytoplasmic volume),[2]; 3 years (N = 6),0.18 ± 0.03
same,"Volume fraction, Change from baseline","[2]; 3 years (N = 6), P 0.001",−38.7%
same,Volume fraction (volume of inclusions/total cytoplasmic volume),[2]; 6 months (N = 8),0.23 ± 0.04
same,"Volume fraction, Change from baseline","[2]; 6 months (N = 8), P 0.001",−21.1%
same,Effect of a high-fat meal on exposure compared with fasting conditions,[3],no effect
same,Median tmax,[3]; fed or fasting,6.00 h
same,Hematologic or biochemical abnormalities,[4]; all Phase 1 studies,No clinically relevant hematologic or biochemical abnormalities
same,Vital signs,[4]; all Phase 1 studies,no relevant changes from baseline
same,"Deaths, SAEs, severe TEAEs, discontinuations",[4]; all Phase 1 studies (single 2-150 mg; 5-20 mg daily for 14 days),"no deaths, SAEs, severe TEAEs, or TEAEs leading to study discontinuation"
same,ECG parameters,[4]; single ascending dose and food effect studies,no relevant changes
same,Patients showing improvements in ataxia,[5]; 52 weeks,5 of 6
same,"Patients exhibiting an improvement in ataxia, excluding Patient 5",[5]; Week 52,4 out of 5
same,"Mean improvement in SARA score, excluding Patient 5","[5]; Week 52, SD=3.2",−0.9
same,Hemoglobin levels,[6]; 26 weeks,no clinically meaningful changes in hemoglobin levels
same,Platelet count increase in the three patients with lowest baseline platelet counts,[6]; 26 weeks,23-42%
same,Patients with reductions in splenic volume of 10% or more,[6]; 26 weeks (5 patients),Two
same,Systemic deterioration,"[6]; 26 weeks, all patients",absence of systemic deterioration
same,Platelet count,"[6]; Week 4, individual Patients 1-5",203 10^9 platelets/L and 243 10^9 platelets/L and 247 10^9 platelets/L and 239 10^9 platelets/L and 154 10^9 platelets/L
same,Platelet count,"[6]; Week 12, individual Patients 1-5",214 10^9 platelets/L and 294 10^9 platelets/L and 264 10^9 platelets/L and 314 10^9 platelets/L and 180 10^9 platelets/L
same,Platelet count,"[6]; Week 26, individual Patients 1-5",264 10^9 platelets/L and 236 10^9 platelets/L and 248 10^9 platelets/L and 267 10^9 platelets/L and 173 10^9 platelets/L
same,Hemoglobin levels,[6]; Week 52,no clinically meaningful changes in hemoglobin levels
same,Platelet count maintained by all patients,[6]; Week 52,greater than 120 ×10^9/L
same,Patients with spleen volume reductions,[6]; Week 52 (six patients),two
same,Mean platelet concentration increase,"[6]; Week 52, range −8.2% to +45.3%",9.3%
same,"Platelet count, % Change from baseline to 26 weeks",[6]; individual Patients 1-5,+42% and +23% and −4.3% and −13% and +36%
same,"Platelet counts, average rise from baseline",[6]; week 26,17%
